Data reported in BindingDB's records for doi:10.7270/Q2F47MKR (Burnham Center For Chemical Genomics, 2010).

Experiment: blockers of orphan receptor GPR35 – imaging, image-based, set 2, SAR follow-up (AID 2480)
[1] = inactive by the depositor's call

Structure (SMILES)	IC50	IC50 [1]
CCC(Sc1nc2ccsc2c(=O)n1Cc1ccc(C(=O)O)cc1)C(=O)Nc1ccc(Cl)cc1 (stereo unspecified) [MLS-0435427.0001]	> 32 µM	
Fc1ccc(N2CCN(c3ncnc4c3cnn4Cc3ccc(Cl)cc3Cl)CC2)cc1 [MLS-0435440.0001]	> 32 µM	
CC(C)COc1ccc(-c2nnc(-c3ccc(Cl)nc3)o2)cc1 [MLS-0435441.0001]	> 32 µM	
Cc1nc(N2CCC(C)CC2)c2c(C)c(C(=O)Nc3ccc4c(c3)OCCO4)sc2n1 [N-(2,3-dihydro-1,4-benzodioxin-6-yl)-2,5-dimethyl-4-(4-methyl-1-piperidinyl)-6-thieno[2,3-d]pyrimidinecarboxamide]	1.88 µM	
Cc1c(C(=O)Nc2ccc3c(c2)OCCO3)sc2ncnc(N3CCC(C)CC3)c12 [N-(2,3-dihydro-1,4-benzodioxin-6-yl)-5-methyl-4-(4-methyl-1-piperidinyl)-6-thieno[2,3-d]pyrimidinecarboxamide]	4.07 µM	
Cc1c(C(=O)Nc2ccc3c(c2)OCCO3)sc2ncnc(O)c12 [N-(2,3-dihydro-1,4-benzodioxin-6-yl)-5-methyl-4-oxo-3H-thieno[2,3-d]pyrimidine-6-carboxamide]	> 32 µM	
CCOC(=O)c1ccc(NC(=O)CCCN2C(=O)/C(=C/c3ccccc3)SC2=S)cc1 [ethyl 4-[4-[(5Z)-5-benzylidene-4-oxo-2-sulfanylidene-1,3-thiazolidin-3-yl]butanoylamino]benzoate]	8.63 µM	

Results, then the compound that gave them:

IC50	IC50 [1]	Structure (SMILES)
> 32 µM		CCc1ccc(NC(=O)CSc2nc3ccsc3c(=O)n2Cc2ccc(OC)cc2)cc1 [N-(4-ethylphenyl)-2-[[3-[(4-methoxyphenyl)methyl]-4-oxo-2-thieno[3,2-d]pyrimidinyl]thio]acetamide]
	11.8 µM	O=C(CCCN1C(=O)/C(=C\c2ccccc2)SC1=S)Nc1ccc(O)cc1 [N-(4-hydroxyphenyl)-4-[(5E)-4-oxidanylidene-5-(phenylmethylidene)-2-sulfanylidene-1,3-thiazolidin-3-yl]butanamide]
	11 µM	O=C(CCCN1C(=O)/C(=C\c2cccs2)SC1=S)Nc1ccc(O)cc1 [N-(4-hydroxyphenyl)-4-[(5E)-4-oxo-2-sulfanylidene-5-(thiophen-2-ylmethylidene)-1,3-thiazolidin-3-yl]butanamide]
1.07 µM		COc1ccc(/C=C2/SC(=S)N(CCCC(=O)Nc3ccc(O)cc3)C2=O)cc1 [N-(4-hydroxyphenyl)-4-[(5E)-5-[(4-methoxyphenyl)methylidene]-4-oxidanylidene-2-sulfanylidene-1,3-thiazolidin-3-yl]butanamide]
8.71 µM		O=C(CCCN1C(=O)/C(=C/c2ccccc2)SC1=S)Nc1ccc(O)cc1 [N-(4-hydroxyphenyl)-4-[(5Z)-4-oxo-5-(phenylmethylene)-2-sulfanylidene-3-thiazolidinyl]butanamide]
	10.2 µM	Cc1nc(N2CCC(C)CC2)c2c(C)c(C(=O)Nc3ccccc3C(F)(F)F)sc2n1 [SMR000312025]
0.0718 µM		CCc1ccc(/C=C2\SC(=S)N(CCCC(=O)Nc3ccc(C(=O)O)cc3)C2=O)cc1 [SMR000646238]
1.18 µM		O=C(CCCN1C(=O)/C(=C/c2ccc3c(c2)OCO3)SC1=S)Nc1ccc(C(=O)O)cc1 [SMR000664854]
> 32 µM		COC(=O)CSc1nc2ccc(NC(=O)c3ccccc3C(=O)N3CCOCC3)cc2s1 [methyl 2-[[6-[(2-morpholin-4-ylcarbonylphenyl)carbonylamino]-1,3-benzothiazol-2-yl]sulfanyl]ethanoate]
